Here are results for ten compounds from patent EP0273272B1, “Pharmaceutical compositions containing 17-benzyl sparteine derivatives with a positive inotropic effect” (Kali-Chemie Pharma GmbH, priority 1986, dated 1988).

The subject of data set [1] is spontan schlagenden, isolierten rechten Vorhöfen. The data set can be described thus: Heart rate of spontaneously beating isolated right atria. Also noted: species or system Meerschweinchen. Particulars: 20 min, concentration lowering the rate to 75 % of the initial value 20 min after application, guinea pig, read-out: Effektive Konzentration zur Erreichung von FRQ 75 %. The method, then: Der direkte Einfluß der Wirksubstanz auf die Herzfrequenz (FRQ) wurde an spontan schlagenden, isolierten rechten Vorhöfen von weiblichen Albino Pirbright-white Meerschweinchen der Gewichtsklasse von 300 bis 400 g geprüft. In Tabelle 3 ist als FRQ 75 % diejenige Konzentration in µmol/l angegeben, bei der es 20 min nach der Substanzgabe zu einer Abnahme der Frequenz auf 75 % des Ausgangwertes kommt. Tabelle 3

The next data set deals with Mäusen. Description: Determination of the minimal toxic dose in mice. Type of data set: in vivo. The method, then:
Männlichen Mäusen von 20-25 g Gewicht werden p.o. Maximaldosen von 300 mg/kg der Testsubstanz verabreicht. Die Tiere werden 3 Stunden lang sorgfältig auf Toxizitätssymptome beobachtet. über einen Zeitraum von 24 Stunden nach der Applikation werden zusätzlich alle Symptome und Todesfälle registriert. Begleitsymptome werden ebenfalls beobachtet und registriert. Wenn Tod oder starke toxische Symptome beobachtet werden, werden weiteren Mäusen zunehmend geringere Dosen verabreicht, bis keine toxischen Symptome mehr auftreten. Die niedrigste Dosis, welche Tod oder starke toxische Symptome hervorruft, wird als minimale toxische Dosis in der nachfolgenden Tabelle 2 angegeben. Tabelle 2

The next data set has as its system linken Herzvorhofes. The data set can be described thus: Functional refractory period of the isolated left atrium, paired electrical stimulation (antiarrhythmic effect). Also noted: species or system Meerschweinchen. Particulars: 0.3 h, concentration prolonging the functional refractory period to 125 % 18 min after application, guinea pig, read-out: Effektive Konzentration zur Erreichung von FRP 125 %. From the text: Der Nachweis der antiarrhythmischen Wirkung der Wirksubstanzen erfolgte experimentell durch Bestimmung der funktionellen Refraktärzeit des linken Herzvorhofes von weiblichen Albino Pirbright-white Meerschweinchen der Gewichtsklasse 300 bis 400 g mit Hilfe der gepaarten elektrischen Stimulation in Anlehnung an die Methode von Govier (W.C. Govier, J. Pharmacol. Exp. Ther. 148 (1) (1965), 100 bis 105). In der nachfolgenden Tabelle 3 ist als FRP 125 % diejenige Konzentration in µmol/l angegeben, bei der es 18 min nach Substanzapplikation zu einer Verlängerung der funktionellen Refraktärzeit auf 125 % kommt.

A further data set relates to narkotisierten Ratten. Description: Myocardial oxygen consumption (double product, method of Neill) in anaesthetised rats. The data set is classed as in vivo. Particulars: used as dihydrochloride; for DP: double product (systolic pressure x heart rate); for FRQ: heart rate; for P₅: systolic blood pressure. From the text: Die Wirkung der Substanzen auf Blutdruck und Herzfrequenz bei i.v.-Dauerinfusion in narkotisierten Ratten wird nach der Methode von Buschmann et al. (J. Cardiovascular Pharmacol. 2 777-781 (1980)) bestimmt.
Männliche Wistar-Ratten (330-370 g Körpergewicht) werden durch i.p.-Applikation von 1,25 g/kg Urethan narkotisiert und tracheotomiert. Nach einer Äquilibrierungsphase von 10 Minuten wird mit den Messungen begonnen. In einer Vorlaufphase von 5 Minuten werden die Ausgangswerte gemessen. Anschließend werden die Prüfsubstanzen gelöst in isotonischer Natriumschloridlösung (gegebenenfalls mit Zusatz eines Lösungsvermittlers) als Dauerinfusion i.v. appliziert, beginnend mit einer Dosis vom 0,01 µmol/kg/min. Die Dosis wird alle 10 Minuten ohne Erhöhung des Infusionsvolumens auf das 10-fache gesteigert. Eine Kontrollgruppe erhält nur wirkstofffreie Lösung appliziert.
In dem gleichen Versuchsmodell wurde auch der Einfluß der Wirksubstanzen auf den myokardialen Sauerstoffverbrauch an narkotisierten Ratten untersucht und anhand der Methode von Neill (Neill, W.Z., H.H. Levine, R.J. Wagman, R. Gorlin, Circulation Research 12 (1963), 163) berechnet. Dazu wird das Produkt aus systolischem Blutdruck und Herzfrequenz (= Doppelprodukt mm Hg x min⁻¹ x 0,01) berechnet. Wie aus der nachstehenden Tabelle 1A ersichtlich ist, reduzieren die Wirksubstanzen dieses Doppelprodukt und führen damit zu einer Sauerstoffeinsparung am Herzen. Tabelle 1A

Setting [2] is: mouse, in vivo, po, 300 mg/kg, 1440 min.
[3] abbreviates: anaesthetised rats, 2,6 µmol/kg i.v.
Setting [4] is: anaesthetised rats, 6,6 µmol/kg i.v.

With `COc1ccccc1CC1C2CC(CN3CCCCC23)C2CCCCN21` (centres unmarked) [Beispiel 501], in data set [1], the EC (FRQ 75%) was 4.69 µM. The “Minimale toxische Dosis” value in the data set with Mäusen (setting [2]) stood at 300 mg/kg. Also, the EC (FRP 125%) in the data set with linken Herzvorhofes stood at 3.71 µM.

As to `Cc1cccc(CC2C3CC(CN4CCCCC34)C3CCCCN32)c1` (centres unmarked) [Beispiel 518], the EC (FRQ 75%) in data set [1] was determined as 3.13 µM. Further, in the data set with Mäusen (setting [2]), the “Minimale toxische Dosis” value was >300 mg/kg. For the same compound, the EC (FRP 125%) in the data set on linken Herzvorhofes stood at 2.58 µM.

As to `Cc1cccc(CC2C3CC(CN4CCCCC34)C3CCCCN32)c1F` (centres unmarked) [Beispiel 523], in data set [1], the EC (FRQ 75%) was 0.95 µM. The “Minimale toxische Dosis” value with Mäusen (setting [2]) is 300 mg/kg. Besides, in the data set with linken Herzvorhofes, the EC (FRP 125%) was 2.69 µM.

On to `Cc1ccc(CC2C3CC(CN4CCCCC34)C3CCCCN32)cc1` (centres unmarked) [Beispiel 519], for which, in data set [1], the EC (FRQ 75%) worked out at 1.9 µM. In addition, the “Minimale toxische Dosis” value in the data set with Mäusen (setting [2]) worked out at 300 mg/kg. In addition, the EC (FRP 125%) with linken Herzvorhofes is 3.24 µM.

As to `Fc1ccc(CC2C3CC(CN4CCCCC34)C3CCCCN32)cc1` (centres unmarked) [Beispiel 511], the EC (FRQ 75%) in data set [1] amounted to 5.12 µM. In addition, the “Minimale toxische Dosis” value in the data set with Mäusen (setting [2]) was >300 mg/kg. Moreover, the EC (FRP 125%) with linken Herzvorhofes turned out to be 2.47 µM.

Consider `c1ccc(CC2C3CC(CN4CCCCC34)C3CCCCN32)cc1` (centres unmarked) [Beispiel 500, 17-Benzylspartein], for which, in data set [1], the EC (FRQ 75%) is 1.46 µM. For the same compound, in the data set on Mäusen (p.o., male mice, maximal dose 300 mg/kg, observed 24 h, lowest dose causing death or strong toxic symptoms), the “Minimale toxische Dosis” value is on record as >300 mg/kg. Moreover, the EC (FRP 125%) in the data set with linken Herzvorhofes is 3.52 µM.

With `COc1cccc(CC2C3CC(CN4CCCCC34)C3CCCCN32)c1OC` (centres unmarked) [Beispiel 6, 17-(2,3-Dimethoxybenzyl)-spartein], the EC (FRQ 75%) in data set [1] came out at 4.85 µM. Besides, the “Minimale toxische Dosis” value with Mäusen (setting [2]) is on record as >300 mg/kg. In the data set with linken Herzvorhofes, the EC (FRP 125%) stood at 3.39 µM.

Turning to `Clc1ccccc1CC1C2CC(CN3CCCCC23)C2CCCCN21` (centres unmarked) [Beispiel 505], in data set [1], the EC (FRQ 75%) was found to be 0.99 µM. The “Änderung DP” value in the data set on narkotisierten Ratten (change of double product versus pre-dose values, 2,6 µmol/kg i.v.) is -26 Prozent. Moreover, in the data set with narkotisierten Ratten (setting [3]), the DP was 376 mm Hg/ min x 100, the FRQ turned out to be 306 min⁻¹ and the P₅ worked out at 121 mm Hg. In addition, in the data set with Mäusen (setting [2]), the “Minimale toxische Dosis” value came out at 300 mg/kg. The EC (FRP 125%) in the data set on linken Herzvorhofes came to 2.17 µM.

Turning to `COc1cccc(CC2C3CC(CN4CCCCC34)C3CCCCN32)c1` (centres unmarked) [Beispiel 502, 17-(3-Methoxybenzyl)-spartein], in data set [1], the EC (FRQ 75%) turned out to be 2.06 µM. Also, in the data set on narkotisierten Ratten (change of double product versus pre-dose values, 6,6 µmol/kg i.v.), the “Änderung DP” value was -29 Prozent. Besides, in the data set on narkotisierten Ratten (setting [4]), the DP is 312 mm Hg/ min x 100, the FRQ was 254 min⁻¹ and the P₅ was found to be 124 mm Hg. In the data set on Mäusen (setting [2]), the “Minimale toxische Dosis” value is on record as 300 mg/kg. For the same compound, the EC (FRP 125%) in the data set with linken Herzvorhofes was 6.24 µM.

Regarding `Fc1ccccc1CC1C2CC(CN3CCCCC23)C2CCCCN21` (centres unmarked) [Beispiel 509], in data set [1], the EC (FRQ 75%) is 4.09 µM. The “Minimale toxische Dosis” value in the data set on Mäusen (setting [2]) is listed as >300 mg/kg. For the same compound, the EC (FRP 125%) in the data set with linken Herzvorhofes came to 2.83 µM.
